According to patent publication US11584769B2, “Diterpene glycosides, compositions and purification methods” (The Coca-Cola Company, priority 2014, dated 2023):

Columns and labels:
[1] = system: panelists; assay: Sensory evaluation of 1 and 3 (single sip protocol, taste panel); type: in vivo, human; conditions: 400 ppm in water, 4° C.; for Bitter Aftertaste Intensity / Sweet Linter Intensity / Other Intensity / Overall Max Bitterness Intensity / Overall Max Sweetness Intensity / Bitter Intensity (In mouth) / Sweet Intensity (In mouth): mean score; for Bitter Aftertaste Intensity / Sweet Linter Intensity: 1 minute after tasting; for Other Intensity: any aromatic other than sweet and bitter or mouthfeel; for Overall Max Bitterness Intensity / Overall Max Sweetness Intensity: up to 1 minute
Experimental: Samples were prepared as described in Table 1. All samples were served at 4° C.
Samples were evaluated using a single sip protocol as follows: • Samples were served at approximately 4° C. • Panelists were instructed to take 1 sip of the sample, hold in mouth for 5 seconds, expectorate comfortable with this), and rate the given attributes • A 5 minute break was placed between each sample and panelists were instructed to cleanse their palates with at least 1 bite of unsalted cracker and 2 sips of filtered water • Due to limited sample quantities, panelists were given the following amounts to test: • a 3 vs Reb M: 1.5 mL • 1 vs Reb M: 5 mL • Samples were randomized within each session for each panelist • All samples were presented in replicate in each session Samples were evaluated for: • Sweet taste intensity: maximum level of sweetness in mouth during 5 seconds • Bitter taste intensity: maximum level of bitterness in mouth during 5 seconds • Overall maximum sweet intensity: maximum sweet intensity experienced from the time the sip is taken up to 1 minute • Overall maximum bitter intensity: maximum […] intensity experienced from the time the sip is taken up to 1 minute • Other intensity: Intensity of any aromatic other than sweet and bitter (metallic, plastic, licorice, etc.) or mouthfeel/sensation • Sweet linger intensity: sweet intensity 1 minute after tasting the sample • Bitter aftertaste intensity: bitter intensity 1 minute after tasting the sample Data Analysis. A 3-way ANOVA was used to compare the sweeteners for each attribute, for 1 only, and significance was determined at p<0.05. Fishers's LSD was used to determine significant differences between mean scores.

[2] = Solubility observed when preparing NMR samples (solvent screen); type: physicochemical; conditions: for Dissolution of the sample in 250 μL of CD3OD: ~4.3 mg (4, CD3OD+TMS) or 3.8 mg (6) in 250 μL
Experimental: Isolation Procedure. Fractions collected during the final pre-concentration step were filtered through a stainless steel sieve and concentrated in vacuo using a Buchi® Rotary Evaporator, Model R-114. The concentrated solution was dried for 48-72 h using the Kinetics Flexi-Dry Personal Freeze Dryer, followed by vacuum oven drying at 37° C. for 24 h to remove residual moisture. MS and MS/MS. MS and MS/MS data were generated with a Waters QTof Micro mass spectrometer equipped with an electrospray ionization source. The sample was analyzed by negative ESI. The sample was diluted to a concentration of 0.1 mg/mL with H2O:MeCN (1:1) and introduced via flow injection for MS data acquisition, tuned for MS/MS and acquired by direct infusion. NMR. […] The ^1H, COSY, HSQC-DEPT and NOESY NMR data were acquired on Bruker Avance 500 MHz instruments with either a 2.5 mm inverse probe or a 5 mm broad band probe. The ^13C and HMBC NMR data were acquired at the Rensselaer Polytechnic Institute using their Bruker Avance 600 MHz instrument with a 5 mm cryo-probe. The ^1H and ^13C NMR spectra were referenced to the TMS resonance at δH 0.00 ppm and CD3OD resonance at 49.0 ppm, respectively. […] The sample was recovered and blown dry under nitrogen or lyophilized between each solvent screen]. Results and Discussion Unless otherwise noted, all solvent ratios are listed as percent by volume (v/v). Primary Purification. Approximately 300 g of Lot #CB-2977-171 was processed using the primary preparative HPLC method described above. […] Fraction 3 (Lot #JAM-D-10-3) contained the target of interest. Secondary Purification. Lot #JAM-D-10-3 (and equivalent lots) was reprocessed with conditions summarized above. […] Tertiary Purification. Fraction Lot #JAM-D-40-2 was reprocessed with conditions summarized above. Fractions with low level m/z 1776 targets were collected as CJP-C-128 (3, 4, 5, 7). These fractions were subsequently pooled to enhance signal strength for additional processing. Quaternary Purification. Fraction Lot #CJP-C-128 (3, 4, 5, 7) (and equivalent lots) were reprocessed with conditions summarized above. Fraction 1, Lot #CJP-C-130(1), was isolated for additional processing. Quinary Purification. Fraction Lot #CJP-C-130(1) (and equivalent lots) were reprocessed with conditions summarized above. Fraction 9, Lot #CJP-C-133(9), was isolated. […] Secondary Purification. Fraction Lot #CJP-C-133(9) was reprocessed with conditions summarized above. Final Batch Preparation. The purified solution was filtered through a stainless steel sieve to remove particulates. The solution was then concentrated by rotary evaporation and lyophilized for about 72 h. The final batch (4.3 mg), was isolated with >99% (AUC, CAD) purity. Mass Spectrometry. […]

[3] = 1 vs Reb M session, 5 mL sip, N=6
[4] = 3 vs Reb M session, 1.5 mL sip, N=3

| Compound | Bitter Aftertaste Intensity [1, 3] | Sweet Linter Intensity [1, 3] | Bitter Aftertaste Intensity [1, 4] | Sweet Linter Intensity [1, 4] | Other Intensity [1, 3] | Other Intensity [1, 4] | Overall Max Bitterness Intensity [1, 3] | Overall Max Sweetness Intensity [1, 3] | Overall Max Bitterness Intensity [1, 4] | Overall Max Sweetness Intensity [1, 4] | Bitter Intensity (In mouth) [1, 3] | Sweet Intensity (In mouth) [1, 3] | Bitter Intensity (In mouth) [1, 4] | Sweet Intensity (In mouth) [1, 4] | Overall Max Sweetness compared to Reb M [1] | Sweet Intensity in Mouth compared to Reb M [1] | Sweet Linger Intensity compared to Reb M [1] | Solubility in solvent screen ([2]; pyridine-d5+TMS (~4 mg/170 μL), D2O+TSP (~4 mg/170 μL), DMSO-d6+TMS) | Dissolution of the sample in 250 μL of CD3OD [2] | Soluble portion of the sample in CD3OD+TMS ([2]; ~4.3 mg of sample in 250 μL of CD3OD+TMS) |
| --- | --- | --- | --- | --- | --- | --- | --- | --- | --- | --- | --- | --- | --- | --- | --- | --- | --- | --- | --- | --- |
| C=C1C[C@@]23CC[C@H]4[C@@](C)(CCC[C@@]4(C)C(=O)O[C@@H]4O[C@H](CO)[C@@H](O)[C@H](O[C@@H]5O[C@H](CO)[C@@H](O)[C@H](O)[C@H]5O)[C@H]4O[C@@H]4O[C@H](CO)[C@@H](O)[C@H](O)[C@H]4O)[C@@H]2CC[C@]1(O[C@@H]1O[C@H](CO)[C@@H](O)[C@H](O[C@@H]2O[C@H](CO)[C@@H](O)[C@H](O)[C@H]2O)[C@H]1O[C@@H]1O[C@H](CO)[C@@H](O)[C@H](O)[C@H]1O)C3 [Reb M, rebaudioside M, reference compound] | 0.5 | 3.6 | 0.3 | 2.5 | 0.8 | 0.3 | 0.8 | 8.4 | 1.4 | 6.3 | 0.7 | 7.8 | 0.4 | 7.4 | – | – | – | – | – | – |
| C=C1C[C@@]23CC[C@H]4[C@@](C)(CCC[C@@]4(C)C(=O)OC4OC(CO)C(O)C(OC5OC(CO)C(O)C(O)C5O)C4OC4OC(CO)C(O)C(O)C4O)[C@@H]2CCC1(OC1OC(CO)C(O)C(OC2OC(CO)C(O)C(O)C2O)C1OC1OC(COC2OC(CO)C(O)C(OC4OC(CO)C(O)C(O)C4O)C2OC2OC(CO)C(O)C(O)C2O)C(O)C(O)C1O)C3 (stereo partly shown) [diterpene glycoside 1] | 0.8 | 0.0 | – | – | 1 | – | 0.8 | 1.1 | – | – | 0.7 | – | – | – | significantly lower | significantly lower | significantly lower | – | – | – |
| C=C1C[C@@]23CC[C@H]4[C@@](C)(CCC[C@@]4(C)C(=O)OC4OC(COC5OC(CO)C(O)C(OC6OC(CO)C(O)C(O)C6O)C5OC5OC(CO)C(O)C(O)C5O)C(O)C(OC5OC(CO)C(O)C(O)C5O)C4OC4OC(CO)C(O)C(O)C4O)[C@@H]2CCC1(OC1OC(CO)C(O)C(OC2OC(CO)C(O)C(O)C2O)C1OC1OC(CO)C(O)C(O)C1O)C3 (stereo partly drawn) [diterpene glycoside 3, (13-[(2-O-β-D-glucopyranosyl-3-O-β-D-glucopyranosyl)-β-D-glucopyranosyl)oxy] ent-kaur-16-en-19-oic acid-[(2-O-β-D-glucopyranosyl-3-O-β-D-glucopyranosyl-6-O-α-D-glucopyranosyl-(2-O-β-D-glucopyranosyl-3-O-β-D-glucopyranosyl)-β-D-glucopyranosyl) ester]] | – | – | 0.3 | 0.9 | – | 0.5 | – | – | 1.3 | 5.6 | – | – | 0.3 | 5.4 | slightly lower | slightly lower | significantly less | – | – | – |
| C=C1C[C@@]23CC[C@H]4[C@@](C)(CCC[C@@]4(C)C(=O)OC4OC(CO)C(O)C(OC5OC(CO)C(O)C(O)C5O)C4OC4OC(CO)C(O)C(OC5OC(CO)C(O)C(OC6OC(CO)C(O)C(O)C6O)C5OC5OC(CO)C(O)C(O)C5O)C4O)[C@@H]2CCC1(OC1OC(CO)C(O)C(OC2OC(CO)C(O)C(O)C2O)C1OC1OC(CO)C(O)C(O)C1O)C3 (stereo partly shown) [diterpene glycoside 4] | – | – | – | – | – | – | – | – | – | – | – | – | – | – | – | – | – | very poor solubility | did not dissolve readily | ~1.5 mg/250 μL |
| C=C1C[C@@]23CC[C@H]4[C@@](C)(CCC[C@@]4(C)C(=O)OC4OC(CO)C(O)C(OC5OC(CO)C(O)C(O)C5O)C4OC4OC(COC5OC(CO)C(O)C(OC6OC(CO)C(O)C(O)C6O)C5OC5OC(CO)C(O)C(O)C5O)C(O)C(O)C4O)[C@@H]2CCC1(OC1OC(CO)C(O)C(OC2OC(CO)C(O)C(O)C2O)C1OC1OC(CO)C(O)C(O)C1O)C3 (stereo partly drawn) [diterpene glycoside 6, (13-[(2-O-β-D-glucopyranosyl-3-O-β-D-glucopyranosyl)-β-D-glucopyranosyl)oxy] ent-kaur-16-en-19-oic acid-[(2-O-β-D-glucopyranosyl-(6-O-α-D-glucopyranosyl-(2-O-β-D-glucopyranosyl-3-O-β-D-glucopyranosyl)-3-O-β-D-glucopyranosyl)-β-D-glucopyranosyl) ester]] | – | – | – | – | – | – | – | – | – | – | – | – | – | – | – | – | – | – | did not dissolve completely | – |
